This is an account of results in patent publication US9617276B2, “Compounds and methods for treating AIDS and HIV infections” (priority 2009, dated 2017).

Holding throughout (experiment): microbe, parasite or virus in culture
For one assay, the system named is HIV-1APV5μM. Format: cell-based. As to conditions: for EC50: Human immunodeficiency virus 1, MT4, read-out: EC50 (μM), HIV-1APV5 μM; for n-fold change in EC50, HIV-1APV5 μM: compared to wild-type HIV-1NL4-3. The procedure:
(§1) The susceptibility of HIV-1LAI and primary HIV-1 isolates to various drugs were determined as described previously (Koh et al. 2003 Antimicrob Agents Chemother 47:3123-9). Briefly, MT-2 cells (2×10^4/ml) were exposed to 100 50% tissue culture infectious doses (TCID50S) of HIV-1LAI, in the presence or absence of various concentrations of drugs in 96-well microculture plates and were incubated at 37° C. for 7 days. After 100 μl of the medium was removed from each well, 3-(4,5-dimetylthiazol-2-yl)-2,5-diphenyltetrazolium bromide (MTT) solution (10 μl, 7.5 mg/ml in phosphate-buffered saline) was added to each well in the plate, followed by incubation at 37° C. for 3 h. […] All assays were performed in duplicate or triplicate. To determine the susceptibility of primary HIV-1 isolates to drugs, phytohemagglutinin-activated peripheral blood mononuclear cells (PHA-PBMCs; 106/ml) were exposed to 50 TCID50S of each. The target cells were exposed to HIV-1104pre or drug-resistant HIV-1 in the presence or absence of various concentrations of drugs and were incubated for 7 days. Upon the conclusion of the culture, the amounts of p24 Gag protein in the supernatants were determined using a fully automated chemiluminescent enzyme immunoassay system (Lumipulse F; Fujirebio Inc., Tokyo, Japan) (Maeda et al. 2001 J Biol Chem 276:35194-200). To determine the drug susceptibility of certain laboratory HIV-1 strains, MT-4 cells were used as target cells. In brief, MT-4 cells (10^5/ml) were exposed to 100 TCID50S of drug-resistant HIV-1 strains in the presence or absence of various concentrations of drugs and on day 7 of culture, the supernatant was harvested and the amounts of p24 Gag protein were determined. […] All assays were performed in duplicate or triplicate.
(§2) Numbers in parentheses represent n-fold changes in EC50s for each isolate compared to the EC50s for wild-type HIV-1NL4-3.

The subject of another assay is HIV-1AZV5μM. Format: cell-based. As to conditions: for EC50: Human immunodeficiency virus 1, MT4, read-out: EC50 (μM), HIV-1AZV5 μM; for n-fold change in EC50, HIV-1AZV5 μM: compared to wild-type HIV-1NL4-3. The procedure:
as §1, §2

In the next assay the test system is HIV-1LPV5μM. Format: cell-based. As to conditions: for EC50: Human immunodeficiency virus 1, MT4, read-out: EC50 (μM), HIV-1LPV5 μM; for n-fold change in EC50, HIV-1LPV5 μM: compared to wild-type HIV-1NL4-3. The procedure: as §1, §2
The test system of a further assay is HIV-1NFV5μM. It counts as cell-based. The following applies: for EC50: Human immunodeficiency virus 1, MT4, read-out: EC50 (μM), HIV-1NPV5 μM; for n-fold change in EC50, HIV-1NPV5 μM: compared to wild-type HIV-1NL4-3. On the procedure: as §1, §2
A further assay deals with HIV-1SQV5μM. It counts as cell-based. As to conditions: for EC50: Human immunodeficiency virus 1, MT4, read-out: EC50 (μM), HIV-1SQV5 μM; for n-fold change in EC50, HIV-1SQV5 μM: compared to wild-type HIV-1NL4-3. The procedure:
as §1, §2

The test system of a further assay is HIV-1MDR/JSL. It counts as cell-based. The following applies: for EC50: Human immunodeficiency virus 1, read-out: EC50 (μM), HIV-1MDR/JSL (NSI); for n-fold change of EC50, HIV-1MDR/JSL: compared to wild-type HIV-1ERS104pre. The procedure: as §1
These clinical strains contained 9 to 14 amino acid substitutions in the protease-encoding region, which have reportedly been associated with HIV-1 resistance to various PIs.
Amino acid substitutions identified in the protease-encoding region compared to the consensus type B sequence cited from the Los Alamos database include L63P in HIV-1ERS104pre; L10I, K14R, L33I, M36I, M46I, F53I, K55R, I62V, L63P, A71V, G73S, V82A, L90M, and I93L in HIV-1MDR/B; L10I, I15V, K20R, L24I, M36I, M46L, I54V, I62V, L63P, K70Q, V82A, and L89M in HIV-1MDR/C; L10I, V11I, T12E, I15V, L19I, R41K, M46L, L63P, A71T, V82A, and L90M in HIV-1MDR/G; L10I, K14R, R41K, M46L, I54V, L63P, A71V, V82A, L90M, I93L in HIV-1MDR/TM; L10I, K43T, M46L, I54V, L63P, A71V, V82A, L90M, and Q92K in HIV-1MDR/MM; L10I, L24I, I33F, E35D, M36I, N37S, M46L, I54V, R57K, I62V, L63P, A71V, G73S, and V82A in HIV-1MDR/JSL. HIV-1ERS104pre served as a source of wild-type HIV-1. EC50s were determined by using PHA-PBMs as target cells, and inhibition of p24 Gag protein production by each drug was used as an end point. Numbers in parentheses represent n-fold changes of EC50s for each isolate compared to EC50s for wild-type HIV-1ERS104pre.

The subject of another assay is HIV-1216-P50. It counts as cell-based, HIV-1. The following applies: for EC50: Human immunodeficiency virus 1, MT4, read-out: EC50 (μM), HIV-1216-p50; for n-fold change in EC50, HIV-1216-p50: compared to wild-type HIV-1NL4-3. On the procedure: (§3) Briefly, MT-2 cells (2×10^4/ml) were exposed to 100 50% tissue culture infectious doses (TCID50S) of HIV-1LAI, in the presence or absence of various concentrations of drugs in 96-well microculture plates and were incubated at 37° C. for 7 days. After 100 μl of the medium was removed from each well, 3-(4,5-dimetylthiazol-2-yl)-2,5-diphenyltetrazolium bromide (MTT) solution (10 μl, 7.5 mg/ml in phosphate-buffered saline) was added to each well in the plate, followed by incubation at 37° C. for 3 h. […] All assays were performed in duplicate or triplicate. […] To determine the drug susceptibility of certain laboratory HIV-1 strains, MT-4 cells were used as target cells. In brief, MT-4 cells (10^5/ml) were exposed to 100 TCID50S of drug-resistant HIV-1 strains in the presence or absence of various concentrations of drugs and on day 7 of culture, the supernatant was harvested and the amounts of p24 Gag protein were determined. […] All assays were performed in duplicate or triplicate.
as §2

For another assay, the system named is HIV-1246-1μM. Format: cell-based, HIV-1. As to conditions: for EC50: Human immunodeficiency virus 1, MT4, read-out: EC50 (μM), HIV-1246-1 μM; for n-fold change in EC50, HIV-1246-1 μM: compared to wild-type HIV-1NL4-3. On the procedure: as §3, §2
Another assay relates to HIV-1286-1μM. It counts as cell-based, HIV-1. As to conditions: for EC50: Human immunodeficiency virus 1, MT4, read-out: EC50 (μM), HIV-1286-1 μM; for n-fold change in EC50, HIV-1286-1 μM: compared to wild-type HIV-1NL4-3. On the procedure: as §3, §2
Another assay relates to HIV-1396-1μM. It counts as cell-based, HIV-1. As to conditions: for EC50: Human immunodeficiency virus 1, MT4, read-out: EC50 (μM), HIV-1396-1 μM; for n-fold change in EC50, HIV-1396-1 μM: compared to wild-type HIV-1NL4-3. On the procedure:
as §3, §2

Structures are written as SMILES.

For `COc1ccc2c(c1)OCCC=CCCCCN(CC(O)C(Cc1ccccc1)NC(=O)OC1COC3OCCC13)S2(=O)=O` (centres unmarked) [Compound 14c], the EC50 was over 1 µM with HIV-1APV5μM; 0.023 ± 0.005 µM with HIV-1AZV5μM; 0.035 ± 0.005 µM in the assay with HIV-1LPV5μM; 0.04 ± 0.017 µM in the assay on HIV-1NFV5μM; 0.02 ± 0.009 µM in the assay on HIV-1SQV5μM; 0.073 ± 0.07 µM in the assay on HIV-1MDR/JSL. Further, the EC50 in the assay with HIV-1216-P50 is 0.094 µM; in the assay with HIV-1246-1μM it was 0.3 ± 0.01 µM; in the assay on HIV-1286-1μM it was over 1 µM; in the assay on HIV-1396-1μM it was 0.073 ± 0.011 µM.

In the case of `Cc1cccc(C)c1OCC(=O)N[C@@H](Cc1ccccc1)[C@@H](O)C[C@H](Cc1ccccc1)NC(=O)[C@H](C(C)C)N1CCCNC1=O` [LPV, lopinavir], in the assay with HIV-1APV5μM, the EC50 was over 1 µM and the “n-fold change in EC50, HIV-1APV5 μM” value was over 22. Besides, in the assay with HIV-1AZV5μM, the EC50 was over 1 µM and the “n-fold change in EC50, HIV-1AZV5 μM” value is recorded as over 22. In the assay on HIV-1LPV5μM, the EC50 is over 1 µM and the “n-fold change in EC50, HIV-1LPV5 μM” value is reported as over 22. Also, in the assay with HIV-1NFV5μM, the EC50 is 0.037 ± 0.004 µM and the “n-fold change in EC50, HIV-1NPV5 μM” value is on record as “(1)”. In addition, in the assay with HIV-1SQV5μM, the EC50 amounted to 0.12 ± 0.02 µM and the “n-fold change in EC50, HIV-1SQV5 μM” value is “(2)”. Further, in the assay on HIV-1MDR/JSL, the EC50 is over 1 µM and the “n-fold change of EC50, HIV-1MDR/JSL” value is reported as over 29. Further, in the assay with HIV-1216-P50, the EC50 was 0.19 ± 0.06 µM and the “n-fold change in EC50, HIV-1216-p50” value is listed as “(5)”. Moreover, in the assay on HIV-1246-1μM, the EC50 worked out at 0.33 ± 0.04 µM and the “n-fold change in EC50, HIV-1246-1 μM” value is listed as “(8)”. For the same compound, in the assay with HIV-1286-1μM, the EC50 is over 1 µM and the “n-fold change in EC50, HIV-1286-1 μM” value is on record as over 23. Also, in the assay on HIV-1396-1μM, the EC50 turned out to be 0.28 ± 0.05 µM and the “n-fold change in EC50, HIV-1396-1 μM” value is reported as “(6)”.

Consider `CCC[C@@]1(CCc2ccccc2)CC(O)=C([C@H](CC)c2cccc(NS(=O)(=O)c3ccc(C(F)(F)F)cn3)c2)C(=O)O1` [TPV, Tipranavir], for which, in the assay on HIV-1APV5μM, the EC50 worked out at 0.22 ± 0.089 µM and the “n-fold change in EC50, HIV-1APV5 μM” value is “(0.7)”. Besides, in the assay with HIV-1AZV5μM, the EC50 was found to be 0.41 ± 0.047 µM and the “n-fold change in EC50, HIV-1AZV5 μM” value was “(1)”. Besides, in the assay on HIV-1LPV5μM, the EC50 is 0.31 ± 0.03 µM and the “n-fold change in EC50, HIV-1LPV5 μM” value is “(1)”. Moreover, in the assay on HIV-1NFV5μM, the EC50 was 0.039 ± 0.041 µM and the “n-fold change in EC50, HIV-1NPV5 μM” value was “(0.1)”. Moreover, in the assay on HIV-1SQV5μM, the EC50 is 0.022 ± 0.009 µM and the “n-fold change in EC50, HIV-1SQV5 μM” value is listed as “(0.1)”. Also, in the assay on HIV-1MDR/JSL, the EC50 was 0.23 ± 0.049 µM and the “n-fold change of EC50, HIV-1MDR/JSL” value is “(2)”. Also, in the assay on HIV-1216-P50, the EC50 worked out at 0.029 ± 0.0004 µM and the “n-fold change in EC50, HIV-1216-p50” value was “(0.1)”. In the assay on HIV-1246-1μM, the EC50 came out at 0.095 ± 0.089 µM and the “n-fold change in EC50, HIV-1246-1 μM” value is “(0.3)”. Besides, in the assay with HIV-1286-1μM, the EC50 was 0.037 ± 0.001 µM and the “n-fold change in EC50, HIV-1286-1 μM” value was “(0.1)”. Besides, in the assay with HIV-1396-1μM, the EC50 worked out at 0.042 ± 0.002 µM and the “n-fold change in EC50, HIV-1396-1 μM” value is “(0.1)”.
